# Test results taken from US20080268533A1, “Methods and Compositions Utilizing Myc and Gsk3Beta to Manipulate the Pluripotency of Embryonic Stem Cells” (University of Georgia Research Foundation, Inc., priority 2004, published 2008).
# Residues, ends and D or L forms follow the SMILES beside them. *: point of attachment. Cbz = O=C(OCc1ccccc1)*
# Assays:
# BG01 cells = test: LY 294002 induced definitive endoderm (DE) formation, Sox17 Q-PCR; type: cell-based, human; details: BG01 on matrigel in MEF-CM, 60 μM LY 294002, BIO approx. 0.1-5 μM, MeBIO approx. 1-5, 3-4 days, Sox17 mRNA by Q-PCR
# Procedure: Q-PCT was performed using relative quantitation using SYBR Green chemistry on the Rotor Gene 3000 instrument (Corbett Research) and a two-step RT-PCR format. Primers were designed to lie over exon-exon boundaries or span introns of at least 800 bp when possible, as this has been empirically determined to eliminate amplification from contaminating genomic DNA.
# Total RNA was isolated using RNeasy (Qiagen) and quantitated using RiboGreen (Molecular Probes). Reverse transcription from 350-500 ng of total RNA was carried out using the iScript reverse transcriptase kit (BioRad), which contains a mix of oligo-dT and random primers. Each 20 μL reaction was subsequently diluted up to 100 μL total volume and 3 μL was used in each 10 μL Q-PCR reaction containing 400 nM forward and reverse primers and 5 μL 2×SYBR Green master mix (Qiagen). Two step cycling parameters were used employing a 5 second denature at 85-94° C. (specifically selected according to the melting temp of the amplicon for each primer set) followed by a 45 second anneal/extend at 60° C. Fluorescence data was collected during the last 15 seconds of each extension phase. A three point, 10-fold dilution series was used to generate the standard curve for each run and cycle thresholds (Ct's) were converted to quantitative values based on this standard curve. The quantitated values for each sample were normalized to housekeeping gene performance and then average and standard deviations were calculated for triplicate samples. At the conclusion of PCR cycling, a melt curve analysis was performed to ascertain the specificity of the reaction. A single specific product was indicated by a single peak at the Tm appropriate for that PCR amplicon.
# Both Cyclophilin G and GUS were used to calculate a normalization factor for all samples. The use of multiple HGs simultaneously reduces the variability inherent to the normalization process and increases the reliability of the relative gene expression values (Vandesompele et al., 2002, Genome Biol., 3:RESEARCH0034). […]
# GSK3β^S9 phosphorylation = type: cell-based, murine; details: 6 hours, CA 2 nM, OA 2 nM
# Procedure: MESCs and d2 EBs were treated for the short-term (6 hours) with phosphatase inhibitors of varying specificities.
# GSK3β [1] = target: T1, GSK3β (Mus musculus, UniProt Q9WV60); test: GSK3β kinase assay on immunoprecipitate, MBP substrate; type: biochemical; details: day 6 EB lysates, inhibitor 3 μM in ethanol
# T1 construct: endogenous in cells; host or cells: day 6 embryoid bodies derived from mouse ES cells (D3 / R1-EGFP)
# T1 sequence (Q9WV60 whole entry): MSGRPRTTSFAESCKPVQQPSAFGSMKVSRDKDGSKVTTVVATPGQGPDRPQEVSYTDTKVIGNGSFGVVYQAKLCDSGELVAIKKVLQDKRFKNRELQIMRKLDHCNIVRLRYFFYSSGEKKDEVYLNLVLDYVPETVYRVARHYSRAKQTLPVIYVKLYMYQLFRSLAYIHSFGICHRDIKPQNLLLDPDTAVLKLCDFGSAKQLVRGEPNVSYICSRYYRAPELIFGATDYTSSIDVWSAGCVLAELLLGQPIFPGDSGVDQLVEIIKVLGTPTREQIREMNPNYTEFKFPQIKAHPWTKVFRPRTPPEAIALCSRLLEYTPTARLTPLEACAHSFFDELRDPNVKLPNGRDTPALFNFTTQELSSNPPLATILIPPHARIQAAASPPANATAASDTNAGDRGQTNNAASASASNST
# Procedure: Cell lysate (300 μg total protein) was adjusted to 1 mg/ml with cell lysis buffer and tumbled with 3 μg of primary antibody for 3 hours at 4° C. 30 μL of protein A Sepharose beads were added and tumbled for a further 1 hour at 4° C. The beads were washed three times with 1 ml of cold lysis buffer and once with 1 ml of kinase buffer (50 mM Hepes pH 7.5, 10 mM MgCl2, 1 mM DTT, 2.5 mM EGTA and protease inhibitor cocktail II (Calbiochem)). Immune complexes bound to the PAS beads were resuspended in 30 μL of kinase buffer with or without the addition of GSK3β inhibitor II (3 μM in ethanol, Calbiochem) or ethanol and incubated at 30° C. for 20 minutes. 10 μCi of [γ-^32P] ATP and 5 μg of myelin basic protein (MBP, Upstate Biotech) was added and the reactions incubated at 30° C. for a further 20 minutes. Reactions were terminated by the addition of 2×SDS load buffer, heated at 95° C. for 2 minutes and resolved on a 12% SDS-polyacrylamide gel. Kinase activities were quantitated by phosphorimager analysis.
# A common mechanism that triggers c-myc degradation is through its phosphorylation at threonine 58 (T58) by GSK3β (Hoang et al., (1995) Mol. Cell. Biol., 15:4031-4042; Sears et al., (2000) Genes Dev., 14:2501-2514; Gregory et al., (2003) J. Biol. Chem., 278:51606-51612). […]
# c-myc = c-myc protein stability assay with proteosome inhibitor (immunoblot); type: cell-based, mouse; details: EBs (−LIF), MG132 5 μM, 3 hours prior to harvesting
# Procedure: Cells were lysed by incubating for one hour on ice in lysis buffer consisting of 50 mM Hepes pH 7.5, 1 mM EDTA, 1 mM EGTA, 250 mM NaCl, 10% glycerol, 0.1% Tween-20, 10 μg/ml TPCK, 50 μg/ml TLCK, 170 μg/ml PMSF, 0.5 mg/ml leupeptin, 0.7 mg/ml pepstatin and phosphatase inhibitor cocktail II (Calbiochem) with occasional vortexing/pipetting. Whole cell extracts (20-40 μg total protein) were separated by 10% SDS-PAGE, transferred to nitrocellulose membranes (BioRad), blocked with 3% BSA in TBSE (Tris HCl pH 7.5, 150 mM NaCl, 2 mM EDTA and 0.1% NP40) and probed with the indicated antibodies at 4° C. The following antibodies were used: anti-c-myc (N-262; Santa Cruz), anti-Oct4 (N-19; Santa Cruz), anti-tubulin (Serotech), anti-HDAC1 (Zymed), anti-Cdk2 (M2; Santa Cruz), anti-GSK3β (Transduction Laboratories). The anti-HDAC1 antibody detects both HDAC1 and HDAC2 and accordingly, a doublet is seen by immunoblot analysis. An antibody that recognizes the T58 phosphorylated form of c-myc (T58/S62, Cell Signaling Technology) was used to evaluate the status of c-myc^T58. […]
# If so, it was predicted that c-myc would have enhanced stability. To test this possibility, the stability of c-myc was determined in undifferentiated ES cells relative to other cell types where its stability is in the order of 30 minutes or less (Hann & Eisenman, (1984) Mol. Cell. Biol., 4:2486-2497). […]
# GSK3β [2] = test: GSK3β nuclear localization in EBs after OA treatment (staining); type: cell-based, murine; details: OA added to EBs, short incubation; data not shown
# From the text: A key issue relating to the understanding of self-renewal is determining how GSK3β activity is suppressed in ESCs but activated in cells committed to differentiate. […] The cytoplasmic localization of GSK3β in mESCs was corroborated by subcellular fractionation using hypotonic lysis (FIG. 3).
# This mechanism accounts for the observed decline in phospho-S9 and activation of GSK3β that occurs during the early stages of differentiation. CA inhibits PP1 and PP2A in contrast to OA, which selectively targets PP2A. This implicated PP2A as a S9 phosphatase in this system. This is supported by experiments showing that PP2A complexes with GSK3 and c-myc in d2 EBs (FIG. 4C). […] While it is possible that nuclear GSK3β was degraded during OA treatment and nascent GSK3β retained in the cytoplasm, it is also likely that GSK3β is transported out of the nucleus in response to OA treatment since only short incubation periods were used and GSK3β is normally a stable protein. This would be consistent with a model where GSK3β localization is controlled by the phosphorylation status of S9. It is known that PP2A dephosphorylates S62 on c-myc, resulting in its degradation (Sears, (2004) Cell Cycle, 3(9):1133-7).
structure (smiles),measurement,setting,value
"O=C1Nc2cc(Br)ccc2/C1=C1/Nc2ccccc2/C1=N\O [BIO, 6-bromoindirubin-3′-oxime]",LY 294002 induced DE formation as determined by Sox17 expression,BG01 cells,blocks LY 294002 induced DE formation
COC[C@@H]([C@H](O)[C@H](O)C(=O)NCC[C@H](C)c1nc(/C=C/C[C@@H]2O[C@]3(C[C@@H](O)[C@@H]2C)O[C@H]([C@H](C[C@H](O)[C@H](C)[C@H](O)[C@H](C)/C=C(C)/C(C)=C/C=C/C(C)=C\C#N)OC)[C@H](OP(=O)(O)O)C3(C)C)co1)N(C)C [Calyculin A],GSK3β S9 phosphorylation in d2 EBs,GSK3β^S9 phosphorylation,significantly increased S9 phosphorylation
Ic1cccc(CSc2nnc(-c3ccncc3)o2)c1 [GSK3β inhibitor II],immunoprecipitated GSK3β kinase activity,GSK3β [1],sensitive
CC(C)C[C@@H](C=O)NC(=O)[C@H](CC(C)C)NC(=O)[C@H](CC(C)C)NC(=O)OCc1ccccc1 [MG132] (Cbz-Leu-Leu-Leu-aldehyde),turnover of c-myc protein following LIF withdrawal,c-myc,blocked
CN1C(=O)/C(=C2\Nc3ccccc3\C2=N/O)c2ccc(Br)cc21 [MeBIO],LY 294002 induced DE formation as determined by Sox17 expression,BG01 cells; listed as MeBio,"but not MeBio, blocks LY 294002 induced DE formation"
same,LY 294002 induced DE formation as determined by Sox17 expression,BG01 cells; listed as meBio,"but not meBio, blocked LY 294002 induced DE formation"
C=C1[C@@H](O)[C@@H]2O[C@]3(CC[C@H](/C=C/[C@@H](C)[C@@H]4CC(C)=C[C@@]5(O[C@H](C[C@@](C)(O)C(=O)O)CC[C@H]5O)O4)O3)CC[C@H]2O[C@@H]1[C@@H](O)C[C@H](C)[C@H]1O[C@@]2(CCCCO2)CC[C@H]1C [okadaic acid],GSK3β S9 phosphorylation in d2 EBs,GSK3β^S9 phosphorylation,significantly increased S9 phosphorylation
same,GSK3β staining in the nucleus,GSK3β [2],GSK3β staining in the nucleus disappeared
